Converted amounts (≈) assume the structure as drawn.
How the values were obtained:
Type in all cases: cell-based
Escherichia coli SOL 90 = experiment: MIC, in vitro dilution method, Escherichia coli SOL 90 (Table III); details: SOL90; Escherichia coli SOL 90; dilution method; read-out: MIC
Excerpt: (§1) The products of the invention have been studied as regards their pharmacological properties and, more especially, bacteriostatic action. This has been determined in vitro by the dilution method, and the study was on Gram negative strains.
(§2) Results, expressed in minimum inhibiting concentrations (MIC-- μg/ml), are collected in the following table (Table III).

Citrobacter RL 49 = experiment: MIC, in vitro dilution method, Citrobacter RL 49 (Table III); details: RL49; Citrobacter RL 49; dilution method; read-out: MIC
Excerpt: as §1, §2

[1] = test system: Proteus vulgaris RL 99 bis; experiment: MIC, in vitro dilution method, Proteus vulgaris RL 99 bis (Table III); details: RL99BIS; Proteus vulgaris RL 99 bis; dilution method; read-out: MIC
Excerpt: as §1, §2

Serratia RL 72 = experiment: MIC, in vitro dilution method, Serratia RL 72 (Table III); details: RL72
Excerpt: as §1, §2

Klebsiella RO 30 = experiment: MIC, in vitro dilution method, Klebsiella RO 30 (Table III); details: RO30; Klebsiella RO 30; dilution method; read-out: MIC
Excerpt: as §1, §2

Enterobacter RO 154 = experiment: MIC, in vitro dilution method, Enterobacter RO 154 (Table III); details: RO154; Enterobacter RO 154; dilution method; read-out: MIC
Excerpt: as §1, §2

Pseudomonas RL 112 = experiment: MIC, in vitro dilution method, Pseudomonas RL 112 (Table III); details: RL112
Excerpt: as §1, §2

Escherichia coli 255 = experiment: MIC on beta-lactamase producing strain Escherichia coli 255 (Table IV); details: Escherichia coli 255, producing beta-lactamases; read-out: MIC
Method: (§3) To evaluate the stability of these products towards beta-lactamases, their MIC was determined on isogenic strains producing and not producing beta-lactamases.
(§4) The results are expressed in μg/ml in Table IV.

Escherichia coli 255/L.7 = experiment: MIC on strain not producing beta-lactamase, Escherichia coli 255/L.7 (Table IV); details: Escherichia coli 255/L.7 *, not producing beta-lactamases; read-out: MIC
Method: as §3, §4

[2] = test system: Serrtia liquefaciens SL/326 A; experiment: MIC on beta-lactamase producing strain Serratia liquefaciens SL/326 A (Table IV)
Method: as §3, §4

[3] = test system: Serrtia liquefaciens SL 1326 S; experiment: MIC on strain not producing beta-lactamase, Serratia liquefaciens SL 1326 S (Table IV); details: SL1326S, not producing beta-lactamases
Method: as §3, §4

[4] = test system: Proteus vulgaris GN 76/C.1; experiment: MIC on beta-lactamase producing strain Proteus vulgaris GN 76/C.1 (Table IV); details: GN76; Proteus vulgaris GN 76/C.1, producing beta-lactamases; read-out: MIC
Method: as §3, §4

SMILES	MIC (Escherichia coli SOL 90)	MIC (Citrobacter RL 49)	MIC [1]	MIC (Serratia RL 72)	MIC (Klebsiella RO 30)	MIC (Enterobacter RO 154)	MIC (Pseudomonas RL 112)	MIC (Escherichia coli 255)	MIC (Escherichia coli 255/L.7)	MIC [2]	MIC [3]	MIC [4]
CNCCCC(=O)OCC1=C(C(=O)O)N2C(=O)C(NC(=O)/C(=N\OC(C)(C)C(=O)O)c3csc(N)n3)C2[S+]([O-])C1 (stereo not drawn) [42 028]	0.25 µg/mL (≈ 0.416 µM)	0.5 µg/mL (≈ 0.832 µM)	≤ 0.12 µg/mL	0.5 µg/mL (≈ 0.832 µM)	0.25 µg/mL (≈ 0.416 µM)	2 µg/mL (≈ 3.33 µM)	4 µg/mL (≈ 6.66 µM)	0.12 µg/mL (≈ 0.2 µM)	0.12 µg/mL (≈ 0.2 µM)	0.12 µg/mL (≈ 0.2 µM)	≤ 0.06 µg/mL	0.25 µg/mL (≈ 0.416 µM)
CC(C)(O/N=C(\C(=O)NC1C(=O)N2C(C(=O)O)=C(COC(=O)C3(N)CCCC3)C[S+]([O-])C12)c1csc(N)n1)C(=O)O (stereo not drawn) [41 975]	0.25 µg/mL (≈ 0.408 µM)	0.5 µg/mL (≈ 0.816 µM)	0.5 µg/mL (≈ 0.816 µM)	4 µg/mL (≈ 6.53 µM)	0.5 µg/mL (≈ 0.816 µM)	8 µg/mL (≈ 13.1 µM)	8 µg/mL (≈ 13.1 µM)	0.5 µg/mL (≈ 0.816 µM)	0.5 µg/mL (≈ 0.816 µM)	0.25 µg/mL (≈ 0.408 µM)	≤ 0.12 µg/mL	0.5 µg/mL (≈ 0.816 µM)
CC(N)CCC(=O)OCC1=C(C(=O)O)N2C(=O)C(NC(=O)C(=NOC(C)(C)C(=O)O)c3csc(N)n3)C2[S+]([O-])C1 (stereo not drawn) [42 027]	0.25 µg/mL (≈ 0.416 µM)	0.25 µg/mL (≈ 0.416 µM)	≤ 0.12 µg/mL	0.5 µg/mL (≈ 0.832 µM)	0.25 µg/mL (≈ 0.416 µM)	2 µg/mL (≈ 3.33 µM)	4 µg/mL (≈ 6.66 µM)	0.12 µg/mL (≈ 0.2 µM)	0.06 µg/mL (≈ 0.0999 µM)	0.25 µg/mL (≈ 0.416 µM)	≤ 0.06 µg/mL	0.12 µg/mL (≈ 0.2 µM)
CC(C)(ON=C(C(=O)NC1C(=O)N2C(C(=O)O)=C(CSC(=O)C3CCN(C(=O)CN)CC3)C[S+]([O-])C12)c1csc(N)n1)C(=O)O (stereo not drawn) [compound 42673]								0.25 µg/mL (≈ 0.365 µM)	0.25 µg/mL (≈ 0.365 µM)	0.25 µg/mL (≈ 0.365 µM)	0.0625 µg/mL (≈ 0.0911 µM)	0.25 µg/mL (≈ 0.365 µM)
CC(C)(ON=C(C(=O)NC1C(=O)N2C(C(=O)O)=C(CSC(=O)C3CCCNC3)C[S+]([O-])C12)c1csc(N)n1)C(=O)O (stereo not drawn) [compound 42074]	1 µg/mL (≈ 1.59 µM)	0.5 µg/mL (≈ 0.795 µM)	0.5 µg/mL (≈ 0.795 µM)	4 µg/mL (≈ 6.36 µM)	0.5 µg/mL (≈ 0.795 µM)	8 µg/mL (≈ 12.7 µM)	8 µg/mL (≈ 12.7 µM)	0.5 µg/mL (≈ 0.795 µM)	0.25 µg/mL (≈ 0.398 µM)	0.25 µg/mL (≈ 0.398 µM)	0.12 µg/mL (≈ 0.191 µM)	0.5 µg/mL (≈ 0.795 µM)
CC(C)(O/N=C(\C(=O)NC1C(=O)N2C(C(=O)O)=C(COC(=O)CCCCCCCN)C[S+]([O-])C12)c1csc(N)n1)C(=O)O (stereo not drawn) [41 856]	0.5 µg/mL (≈ 0.778 µM)	2 µg/mL (≈ 3.11 µM)	≤ 0.12 µg/mL	2 µg/mL (≈ 3.11 µM)	0.25 µg/mL (≈ 0.389 µM)	4 µg/mL (≈ 6.22 µM)	16 µg/mL (≈ 24.9 µM)					
CC(CCN)C(=O)OCC1=C(C(=O)O)N2C(=O)C(NC(=O)C(=NOC3(C(=O)O)CCC3)c3csc(N)n3)C2[S+]([O-])C1 (stereo not drawn) [42 209]	0.25 µg/mL (≈ 0.408 µM)	≤ 0.12 µg/mL	≤ 0.12 µg/mL	0.5 µg/mL (≈ 0.816 µM)	0.25 µg/mL (≈ 0.408 µM)	≤ 0.12 µg/mL	4 µg/mL (≈ 6.53 µM)					
Cc1ccc(CN)c(C)c1C(=O)OCC1=C(C(=O)O)N2C(=O)C(NC(=O)C(=NOC3(C(=O)O)CCC3)c3csc(N)n3)C2[S+]([O-])C1 (stereo not drawn) [42 541]	0.5 µg/mL (≈ 0.741 µM)	0.25 µg/mL (≈ 0.371 µM)	≤ 0.125 µg/mL	0.5 µg/mL (≈ 0.741 µM)	≤ 0.125 µg/mL	0.25 µg/mL (≈ 0.371 µM)	4 µg/mL (≈ 5.93 µM)					
Nc1nc(/C(=N/OC2(C(=O)O)CCC2)C(=O)NC2C(=O)N3C(C(=O)O)=C(COC(=O)CC4CCCCN4)C[S+]([O-])C23)cs1 (stereo not drawn) [42 471]	0.5 µg/mL (≈ 0.783 µM)	0.25 µg/mL (≈ 0.391 µM)	≤ 0.125 µg/mL	0.5 µg/mL (≈ 0.783 µM)	0.25 µg/mL (≈ 0.391 µM)	0.25 µg/mL (≈ 0.391 µM)	8 µg/mL (≈ 12.5 µM)					
NC[C@H]1CC[C@H](C(=O)OCC2=C(C(=O)O)N3C(=O)C(NC(=O)/C(=N\OC4(C(=O)O)CCC4)c4csc(N)n4)C3[S+]([O-])C2)CC1 (stereo partly drawn) [42 212]	≤ 0.12 µg/mL	≤ 0.12 µg/mL	≤ 0.12 µg/mL	0.25 µg/mL (≈ 0.383 µM)	≤ 0.12 µg/mL	≤ 0.12 µg/mL	4 µg/mL (≈ 6.13 µM)					
CC(C)NCc1ccc(C(=O)OCC2=C(C(=O)O)N3C(=O)C(NC(=O)/C(=N\OC(C)(C)C(=O)O)c4csc(N)n4)C3[S+]([O-])C2)cc1 (stereo not drawn) [42 397]	≤ 0.125 µg/mL	≤ 0.125 µg/mL	≤ 0.125 µg/mL	1 µg/mL (≈ 1.48 µM)	≤ 0.125 µg/mL	≤ 0.125 µg/mL	8 µg/mL (≈ 11.8 µM)					
Nc1nc(/C(=N/OC2(C(=O)O)CCC2)C(=O)NC2C(=O)N3C(C(=O)O)=C(COC(=O)C4(N)CCCC4)C[S+]([O-])C23)cs1 (stereo not drawn) [42 210]	1 µg/mL (≈ 1.6 µM)	0.5 µg/mL (≈ 0.8 µM)	0.25 µg/mL (≈ 0.4 µM)	1 µg/mL (≈ 1.6 µM)	0.5 µg/mL (≈ 0.8 µM)	0.25 µg/mL (≈ 0.4 µM)	4 µg/mL (≈ 6.4 µM)					

Source: patent US4656166A, “Antibiotic compounds derived from cephalosporins, process for their production and pharmaceutical compositions” (Sanofi, priority 1983, dated 1987)
